The conditions of the data set: deionized water, approximately 22° C., room temperature.

One may read the Solubility as the concentration that dissolves in the medium under given conditions.

Experimental: In a vial that contains pre-weighed amount of solid, deionized water was added in small increments at approximately 22° C. The solid/liquid mixture was agitated by a vortex mixer and held at room temperature. Continued to add deionized water and repeated the mixing until the solid was fully dissolved.

“tenofovir alafenamide hemifumarate [TAF Hemifumarate]”: the Solubility was determined as 20 mg/mL.

Source of the values: patent publication US12202849B2, “Crystalline forms of tenofovir alafenamide” (Gilead Sciences, Inc., priority 2017, dated 2025).
